We go through 4 molecules from article PMC12278462, “Site-selective arylations of nature-inspired flavonoids or steroidal phenols via C—H or O—H activation” (Journal of Enzyme Inhibition and Medicinal Chemistry, 2025).

Experiment [1] concerns MCF-7. Kind of experiment: MTT antiproliferative assay, MCF-7. In kind it is cell-based, human. The settings on record: Homo sapiens; for inhibition at 10 µM: MCF7, 10 µM; for inhibition at 10 µM / inhibition at 30 µM: 72 h; for inhibition at 30 µM: MCF7, 30 µM; for IC50: MCF7, 72 h, read-out: calculated IC50 MCF-7. As to the method:
(§1) We evaluated the cytotoxic activity of the newly synthesised arylated compounds 13–17 by the MTT assay[37] on a panel of human adherent cancer cell lines. The panel included breast (MCF-7 and MDA MB-231) and cervical (HeLa, SiHa and C33A) cancer cell lines differing in receptorial or HPV status. Tumour selectivity was determined on the NIH/3T3 mouse fibroblast cell line.
(§2) Briefly, the panels of breast and cervical cancerous cell lines, differing by their receptorial and HPV status were used, precisely MCF-7 (ER, PR and HER2 positive) and MDA-MB-231 (TNBC) breast carcinoma and HeLa (HPV18+), SiHa (HPV16+), C33A (HPV-) cervical carcinoma cells. Non-cancerous NIH/3T3 mouse fibroblast cell line was used for selectivity study. MCF-7, MDA-MB-231, Hela and NIH/3T3 cell lines were purchased from ECACC (European Collection of Cell Cultures, Salisbury, UK), while SiHa and C33A from ATCC (American Tissue Culture Collection, LGC Standards GmbH, Wesel, Germany). Cells were maintained in Eagle's Minimum Essential Medium (EMEM, Capricorn Scientific GmbH, Ebsdorfergrund, Germany) supplemented with 10% heat-inactivated fetal bovine serum (FBS), 1% non-essential amino acids (NEAA), and 1% antibiotic-antimycotic mixture (penicillin–streptomycin). The cells were maintained at 37 °C in a humidified atmosphere containing 5% CO2.
(§3) For measurements cells were seeded for 96-well plates at a density of 5 000/well, except for C33A, which was seeded in 10 000cells for each well. After overnight standing cells were treated with 10 and 30 µM solutions for screening and increasing concentrations (0.1-30.0 µM) of the test compounds were used for concentration-response curves. After incubation for 72 hours under cell culturing condition 5 mg/ml MTT (3-(4,5-[…])-2,5-diphenyl-2H-tetrazolium bromide) solution was added for another 4 h. The precipitated formazan crystals were solubilized in DMSO and the absorbance was measured at 545 nm with a microplate reader (BMG Labtech, Ortenberg, Germany). Wells with untreated cells were utilized as control, and inhibition % were calculated by GraphPad Prism v 9.0 software (GraphPad Software, San Diego, CA, USA). If the growth-inhibition exceeded 70% at 30 µM concentration during the screening concentration-response curves were fitted and IC50 values were calculated by GraphPad Prism v 9.0. The experiments were performed with five parallel wells for each experimental condition and repeated at least twice.

The test system of experiment [2] is NIH/3T3 mouse fibroblast cell line. In words: MTT assay, tumour selectivity on non-cancerous fibroblasts. It is filed as cell-based. The settings on record: Mus musculus; for inhibition at 10 µM: NIH3T3, 10 µM; for inhibition at 10 µM / inhibition at 30 µM: 72 h; for inhibition at 30 µM: NIH3T3, 30 µM. As to the method:
as §1, §2, §3
On the technique in general: Formazan colour is commonly taken as a measure of viable cells.

Experiment [3] relates to MDA-MB-231. Kind of experiment: MTT antiproliferative assay, MDA-MB-231. The note with it: Homo sapiens; for inhibition at 10 µM: MDA-MB-231, 10 µM; for inhibition at 10 µM / inhibition at 30 µM: 72 h; for inhibition at 30 µM: MDA-MB-231, 30 µM. It is filed as cell-based, human. As to the method: as §1, §2, §3
Experiment [4] has as its system HeLa. In words: MTT antiproliferative assay, HeLa. It is filed as cell-based, human. The note with it: Homo sapiens, HeLa, 72 h; for IC50: read-out: calculated IC50 HeLa. As to the method:
as §1, §2, §3

Experiment [5] deals with SiHa. In words: MTT antiproliferative assay, SiHa. In kind it is cell-based, human. The settings on record: Homo sapiens, SiHa, 72 h. As to the method:
as §1, §2, §3

Experiment [6] has as its target T1, 17β-HSD1 (Homo sapiens, UniProt P14061).
T1 sequence (P14061 1-328): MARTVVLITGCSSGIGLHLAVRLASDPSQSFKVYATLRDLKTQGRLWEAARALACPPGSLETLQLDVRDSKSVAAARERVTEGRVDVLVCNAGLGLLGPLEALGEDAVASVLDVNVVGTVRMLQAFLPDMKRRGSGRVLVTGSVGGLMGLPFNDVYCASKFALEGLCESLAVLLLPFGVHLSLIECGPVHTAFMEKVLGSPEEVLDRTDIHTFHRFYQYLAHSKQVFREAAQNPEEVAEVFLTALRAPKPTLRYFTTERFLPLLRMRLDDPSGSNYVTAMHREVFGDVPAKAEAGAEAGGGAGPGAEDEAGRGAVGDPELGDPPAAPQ
In words: 17β-HSD1 enzymatic assay (E1 to E2, LC-MS/MS). The note with it: for inhibition at 100 µM / inhibition at 10 µM: read-out: 17β-HSD1 Inhibition (% ± SD). In kind it is biochemical. As to the method:
The bacterial homogenate of E. coli overexpressing HSD17B1 was previously prepared as described in references ^S2,S3, and stored in aliquots at -80 °C. Before conducting experiments, aliquots were quickly thawed and diluted twice with 100 mM sodium phosphate buffer (pH 6.5; #14457, #1411007, Kemika), then kept on ice. The enzymatic assay was performed as described in ^S3. Briefly, a 1 mL enzymatic reaction mixture was prepared in 2 mL microcentrifuge tubes with the following components: 10 µL of the test inhibitor dissolved in dimethyl sulfoxide (DMSO; #276855, Sigma Aldrich) or 10 µL of DMSO for control samples, 5 µL of 14 µM substrate estrone (E1; CAS 53-16-7; #E2300-000, Steraloids), 10 µL of 10 mM NADPH (#AE14, Carl Roth) prepared in 100 mM sodium phosphate buffer, and 965 µL of 100 mM sodium phosphate buffer (pH 6.5). The reaction mixture was mixed thoroughly before adding 10 µL of bacterial homogenate. Immediately after addition, the tubes were transferred to an Eppendorf thermoshaker (#5382000031, Eppendorf) and incubated at 37 °C for 10 minutes. To stop the reaction, 60 µL of 1.26 M ascorbic acid (#A92902, Sigma Aldrich) in methanol (#34966, Honeywell/Riedel-de Haen) /acetic acid (#1.00063, Merck) (99:1, v/v) was added. The samples were then immediately processed using solid-phase extraction (SPE). The assay was repeated in three independent experiments, with each experiment performed in technical duplicate.
The preparation of samples for liquid chromatography-tandem mass spectrometry (LC-MS/MS) involved SPE. Stock solutions of E1 and 17β-estradiol (E2; CAS: 50-28-2; #142406, Steraloids) were prepared gravimetrically and dissolved in methanol (#34966, Honeywell/Riedel-de Haen). A working calibrator solution containing both steroids was then prepared by mixing appropriate volumes of the stock solutions in methanol to achieve a final concentration of 1 µg/mL for each steroid. Eight-point calibration curves (excluding zero and blank) were prepared in 100 mM sodium phosphate buffer (pH 6.5). For each 1 mL reaction mixture or calibrator, 10 µL of 100 ng/mL internal standard solution containing [2,3,4-13C3]-17β-estradiol (#719552, Sigma Aldrich) was added. Samples were mixed thoroughly and incubated at room temperature for 15 minutes.
SPE was performed using Strata X 33 µm polymeric reversed-phase columns (30 mg/mL tubes; #8B-S100-TAK, Phenomenex). The procedure involved the following steps: column conditioning with 1 mL of methanol, column equilibration with 1 mL of H₂O (#1.15333, Supelco), sample loading (1 mL sample or calibrator), column washing with 1 mL of H₂O, column drying under high vacuum for 10 minutes, and finally elution with 1 mL of methanol directly into HPLC glass vials (#702713, Macherey-Nagel GmbH/Co). The eluted samples were stored at -20 °C until LC-MS/MS analysis.

Experiment [7] has as its system human adherent cancer cell lines (HeLa, SiHa, C33A, MCF-7 and MDA-MB-231). Kind of experiment: MTT assay, whole panel of cell lines. It is filed as cell-based. The settings on record: Homo sapiens; MTT, 72 h; range across cell lines; read-out: IC50 range over the investigated cell lines. As to the method:
as §1, §2, §3

Experiment [8] deals with C33A. In words: MTT antiproliferative assay, C33A. It is filed as cell-based, human. The settings on record: Homo sapiens, C-33-A, 72 h. As to the method:
as §1, §2, §3

The structures appear in SMILES notation. Read-outs that look alike come from different tables or passages of the source. Bounds are passed on as bounds.

Broadly, the inhibition is the drop in the measured response relative to a control, in per cent. For the molecule `CC(C)(C)c1ccc(-c2cc(O)cc3c2[C@H]2CC[C@@]4(C)C(=O)CC[C@H]4[C@@H]2CC3)cc1` [14c, 3-hydroxy-1-(4-tert-butylphenyl)-13α-estra-1,3,5(10)-triene-17-one], the inhibition at 10 µM in experiment [1] was 35.4%; in experiment [2], 16.1%; in experiment [3], less than 10%; in experiment [4], 21.9%; in experiment [5] it was 20.2%; in experiment [8], 25.4%. Moreover, the inhibition at 30 µM in experiment [1] was determined as 101%; in experiment [2] it was 98.3%; in experiment [3], 91.3%; in experiment [4], 98.3%; in experiment [5] it was 99.6%; in experiment [8], 89.8%. The IC50 was 10.6 µM in experiment [1]; 13.7 µM in experiment [2] (NIH3T3, 72 h, read-out: calculated IC50 NIH/3T3); 20.5 µM in experiment [3] (MDA-MB-231, 72 h, read-out: calculated IC50 MDA-MB-231); 13 µM in experiment [4]; 12.5 µM in experiment [5] (read-out: calculated IC50 SiHa); 2.7 µM in experiment [6] (read-out: 17β-HSD1 calculated IC50 (95% CI)). In addition, the IC50 in experiment [7] is 10.6 to 20.5 µM; in experiment [8] (read-out: calculated IC50 C33A) it was 14.4 µM. For the same molecule, the inhibition at 100 µM in experiment [6] (100 µM test concentration) was determined as 77.6 ± 6.3%.
In the case of `C[C@@]12CC[C@@H]3c4c(cc(O)cc4-c4ccccc4)CC[C@H]3[C@@H]1CCC2=O` [14a, 3-hydroxy-1-phenyl-13α-estra-1,3,5(10)-triene-17-one], the inhibition at 10 µM was 13.1% in experiment [1]; 13.5% in experiment [2]; less than 10% in experiment [3]; 16.1% in experiment [4]; less than 10% in experiment [5]; 36.1 ± 10.2% in experiment [6] (10 µM test concentration). The inhibition at 10 µM in experiment [8] was less than 10%. The inhibition at 30 µM in experiment [1] was 15.4%; in experiment [2], 22.5%; in experiment [3] it was less than 10%; in experiment [4] it was 43%; in experiment [5], less than 10%; in experiment [8] it was 12.7%. Besides, the inhibition at 100 µM in experiment [6] (100 µM test concentration) stood at 73.3 ± 7.5%.
Consider `CN(C)C(=O)Oc1cc2c(c(-c3ccc(Br)cc3)c1)[C@H]1CC[C@@]3(C)C(=O)CC[C@H]3[C@@H]1CC2` [13b, 1-(4-bromophenyl)-3-(N,N-dimethylcarbamoyloxy)-13α-estra-1,3,5(10)-triene-17-one], for which the inhibition at 10 µM in experiment [1] was 37.5%; in experiment [2] it was less than 10%; in experiment [3] it was less than 10%; in experiment [4] it was 53.6%; in experiment [5], 38.6%; in experiment [6], 14.5 ± 8.4%. Besides, in experiment [8], the inhibition at 10 µM was less than 10%. In addition, the inhibition at 30 µM amounted to 68.7% in experiment [1]; 46.3% in experiment [2]; 13.9% in experiment [3]; 59.3% in experiment [4]; 40% in experiment [5]; 57.8% in experiment [8]. Moreover, in experiment [6], the inhibition at 100 µM amounted to 42.2 ± 18.6%.
Take `C[C@@]12CC[C@@H]3c4c(cc(O)cc4-c4ccc(Br)cc4)CC[C@H]3[C@@H]1CCC2=O` [14b, 1-(4-bromophenyl)-3-hydroxy-13α-estra-1,3,5(10)-triene-17-one]: the inhibition at 10 µM in experiment [1] is 35.1%; in experiment [2], 16.1%; in experiment [3], less than 10%; in experiment [4], 26.5%; in experiment [5], less than 10%; in experiment [6] (10 µM test concentration) it was 35.9 ± 8%. The inhibition at 10 µM in experiment [8] was determined as 28.7%. For the same molecule, the inhibition at 30 µM is 81.5% in experiment [1]; 41.7% in experiment [2]; 46.8% in experiment [3]; 71.6% in experiment [4]; 59.7% in experiment [5]; 57% in experiment [8]. Besides, the IC50 is 13.5 µM in experiment [1] and 17.5 µM in experiment [4]. In addition, the inhibition at 100 µM in experiment [6] (100 µM test concentration) amounted to 76.6 ± 5.1%.
